Results taken from article PMC9268305, “The Pharmacokinetics in Mice and Cell Uptake of Thymus Immunosuppressive Pentapeptide Using LC-MS/MS Analysis” (Molecules, 2022).
Entries after “also recorded” stand apart in the source; their conditions may differ. Where a SMILES comes first, the peptide text is derived from it. The star is where a group is joined. FITC = O=C1OC2(c3ccc(O)cc3Oc3cc(O)ccc32)c2ccc(NC(=S)*)cc21; Ahx = NCCCCCC(=O)O

Experiments:
[1] = Stability of TIPP in processed murine plasma samples (LC-MS/MS validation); type: in vitro ADME, mouse; details: compared to nominal concentration, mean ± SD, n = 3, in % (unit assumed)
Method: The stability of TIPP in plasma samples was investigated under different conditions. To evaluate autosampler stability, long-term stability, and short-term stability, up to three replicates of LQC and HQC plasma samples were evaluated when the samples were stored at room temperature for 4 h, at 4 °C for 24 h, and at −80 °C for 4 weeks, respectively. Freeze–thaw stability was also assessed in three cycles from −80 to 25 °C. Concentrations were determined using a TIPP calibrator of the respective validation day. Obtained results were compared to nominal concentrations to determine the stability.

RBL-2H3 cells [2] = test system: RBL-2H3 cells
Method: (§1) RBL-2H3 cells were obtained from the Cell Resource Center of Shanghai Institutes for Biological Sciences (Shanghai, China) and cultured in complete MEM containing 15% heat-inactivated FBS in a 37 °C incubator (5% CO2 and 95% air). […] To prepare final cell rinse samples, the cells were removed, the supernatant was rinsed with 1 mL of PBS five times, and 90 μL of the final cell rinse was collected and mixed with 10 μL of S4 solution (3 μg/mL) for chromatographic analysis directly. For the preparation of cell lysate samples, the cells (about 10^6 cells) were lysed with 130 μL of RIPA buffer for 30 min on ice, and 100 μL of the cell lysate was collected for sample pre-processing following Section 4.5.1.
(§2) RBL-2H3 cells were seeded in a 35 mm diameter dish at 8 × 10^5 cells and treated with 200 μg/mL TIPP for different durations (5 min, 10 min, 20 min, 30 min, 40 min, 1 h, 3 h, 6 h, 12 h, and 24 h). Then, the cells were subjected to the pre-processing procedures to prepare cell lysates, cell culture supernatants and the final cell rinse samples (Section 4.5.2). In addition, to study TIPP intracellular degradation, the cells were incubated with TIPP for 40 min, which was followed by incubation with TIPP-free medium for 10, 20, 30, 40, and 60 min, respectively. The cell lysates were then harvested at the above time points and pre-processed as presented in Section 4.5.2.

RBL-2H3 cells [3] = assay: Uptake of TIPP in RBL-2H3 cells by LC-MS/MS (lysates, supernatants, final rinse)
Method: as §1, §2

[4] = mouse, in vivo, sc, 50 mg/kg
Method: (§3) Whole blood was collected from inner canthus into a tube containing ethylenediaminetetraacetic acid (EDTA) and centrifuged at 5000 rcf for 3 min. Subsequently, 10 μL of plasma samples were diluted with 90 μL TDW. The sample processing process is then executed, and the diluted samples were mixed with 10 μL of S4 solution (3 μg/mL) and 300 μL of 2% FA-ACN in a tube containing 20 μL of DTT solution (25 mg/mL). After centrifugation at 15,000 rcf for 10 min, 300 μL supernatant was transferred to a new tube containing 500 μL of DCM. The mixture was vortexed and centrifuged at 15,000 rcf for 10 min, and the aqueous layer was loaded into the LC-MS/MS system.
(§4) After 4 h fasting (ad libitum water intake), mice were subcutaneously injected with 50 mg/kg TIPP. At 0.5, 1, 2, 5, 10, 15, 20, and 40 min post administration (eight mice at each time points), blood samples were taken from an inner canthus into tubes containing Na2·EDTA and centrifuged at 5000 rcf for 10 min to obtain plasma. All samples were processed as described in Section 4.5.1 immediately.
(§5) PK parameters were calculated as mean ± standard deviation (SD). The Cmax and the time to reach Tmax were calculated based on the highest concentration and the corresponding time point, and t1/2 was calculated from C0 to C40. The area under the curve during the 40 min window (AUC0→40) and the extrapolated value (AUC0→∞) were calculated using the trapezoidal rule, and the elimination rate and concentration at 40 min were extrapolated from 40 min to infinity. The CL/F and Vd/F were calculated using the first-order one-compartment model.
(§6) Analyst® 1.5 software (AB SCIEX) was used for HPLC-MS/MS data processing. A non-compartmental model was employed to fit the PK of TIPP in mice plasma using DAS 2.0 software. […] Results were compared using t test or one-way analysis of variance, which was followed by Dunnett’s multiple comparisons test, with p < 0.05 considered significant.

[5] = Elimination of TIPP after intravenous injection in mice (data not shown); type: in vivo
[6] = Sample-preparation stability/recovery of TIPP in water and murine plasma, with stabilizers; type: in vitro ADME, mouse
Method: TIPP stock solutions were separately diluted in TDW or murine plasma at a concentration of 1 μg/mL. Samples (10 μL) were subjected to protein precipitation either immediately or after 10 min incubation at room temperature (around 25 °C). A series of reagents were used for protein precipitation, including MeOH (300 μL) and 2% FA-ACN of different volumes (300, 140, 100, and 70 μL). After brief vortex, the samples were centrifuged at 15,000 rcf at 4 °C for 10 min, and the supernatants were collected for chromatographic analysis. In order to increase the signal intensity of highly water-soluble TIPP in organic solvents, a group of liquid–liquid extraction was carried out to separate the aqueous phase from the organic phase. After treating with 300 μL of 2% FA-ACN, the resulting supernatants (300 μL) were mixed with 500 μL of DCM for backwashing. […] After sample preparation, the processed samples were stored at −80 °C until analysis. Before sampling, the prepared sample was thawed, vortexed, and placed in the autosampler.
To choose the optimal stabilizer, the performance of DTT (30 mg/mL), L-AA (10 mg/mL), and PMSF (50 μg/mL) was evaluated. Plasma (90 μL) was mixed with each stabilizer (20 μL), and TIPP (10 μL, 5 μg/mL). The samples were subjected to protein precipitation either immediately or after 10 min incubation at room temperature. For protein precipitation, the samples added with 10 μL of S4 (3 μg/mL) were mixed with 300 μL of 2% FA-ACN and processed as discussed in Section 4.3.1. The aqueous layer was collected for chromatographic analysis. The recovery of TIPP with each stabilizer was determined. Moreover, the stabilizing effect of DTT was further evaluated with different concentrations (2.5, 5, 10, 20, 25, and 40 mg/mL), following the above protocol.

[7] = PK of TIPP via subcutaneous injection in mice; details: female, BALB/c, mouse, plasma, sc, 50 mg/kg; for MRT: mice, 50 mg/kg subcutaneous, mean ± SD, n = 8
Method: as §3, §4, §5, §6

RBL-2H3 cells [8] = assay: Confocal visualization of cellular localization of FITC-TIPP; type: cell-based, rat; details: confocal microscope
Method: RBL-2H3 cells (4 × 10^4) were seeded in a 35 mm confocal dish and treated with 367 μg/mL FITC-TIPP for 0, 5, 10, 20, 30, 40, and 60 min, respectively. Then, the cells were fixed with 4% paraformaldehyde solution for 10 min and permeabilized with 0.1% Triton-100 for 5 min, which was followed by nuclear staining in a dark place with Hoechst 33342 for 5 min. Finally, the cells were washed, stained with DiI dye solution for 10 min, rinsed with PBS three times, and analyzed with a confocal microscope.

[9] = -SH group substituted with the -OH group; cited from earlier work
Text: The pharmacokinetic properties in animals and its action mechanism also need to be studied using reliable, accurate, and sensitive methods in order to develop TIPP into a new drug. Short peptides can be analyzed using fluorescence labeling, immunoassay, and liquid chromatography-tandem mass spectrometry (LC-MS/MS). Although the visualization and quantification of fluorescently labeled peptides are widely used, there are still some drawbacks. One such flaw is that fluorescent labeling might change the structure of small molecules, resulting in the alteration of physical and chemi ...

Molecule: C[C@H](N)C(=O)N[C@@H](CCC(=O)O)C(=O)N[C@@H](Cc1c[nH]c2ccccc12)C(=O)N[C@@H](CS)C(=O)N1CCC[C@H]1C(=O)O (H-AEWCP-OH)
- Stability in murine plasma, 4 weeks at −80 °C, HQC ([1]; HQC 4000 ng/mL, 4 weeks at −80 °C): 90.70 ± 0.12
- Stability in murine plasma, 4 h at room temperature, HQC ([1]; HQC 4000 ng/mL, 4 h at room temperature): 98.02 ± 0.04
- Stability in murine plasma, 24 h at 4 °C, HQC ([1]; HQC 4000 ng/mL, autosampler 24 h at 4 °C): 99.35 ± 0.84
- Stability in murine plasma, three freeze-thaw cycles, HQC ([1]; HQC 4000 ng/mL, three freeze-thaw cycles at −80–25 °C): 106.00 ± 0.16
- Stability in murine plasma, 4 weeks at −80 °C, LQC ([1]; LQC 50 ng/mL, 4 weeks at −80 °C): 90.70 ± 1.61
- Stability in murine plasma, 24 h at 4 °C, LQC ([1]; LQC 50 ng/mL, autosampler 24 h at 4 °C): 103.64 ± 2.00
- Stability in murine plasma, three freeze-thaw cycles, LQC ([1]; LQC 50 ng/mL, three freeze-thaw cycles at −80–25 °C): 94.23 ± 0.02
- Intracellular t1/2 of TIPP (RBL-2H3 cells [2]): 5.596 min
- Intracellular concentration of TIPP (cell lysate) at 20 min (RBL-2H3 cells [3]; 200 μg/mL TIPP, 20 min, cells rinsed five times with PBS, RIPA lysate, LC-MS/MS, n = 3): 24.57 ± 4.53 ng/mL
- Concentration of TIPP in cell culture supernatant at 12 h (RBL-2H3 cells [3]; 200 μg/mL TIPP, MEM with 15% FBS, 37 °C, 12 h, LC-MS/MS, n = 3): below the detection limit
- Concentration of TIPP in PBS rinse samples (RBL-2H3 cells [3]; 200 μg/mL TIPP, all PBS rinse samples, detection limit, LC-MS/MS): < 0.1 ng/mL
- Residual TIPP in the final cell rinse PBS (in words) (RBL-2H3 cells [3]; 200 μg/mL TIPP, fifth PBS rinse, LC-MS/MS): No residual TIPP was detected
- Intracellular concentration of TIPP (cell lysate), plateau (RBL-2H3 cells [3]; 200 μg/mL TIPP, from 30 min onwards, RIPA lysate, LC-MS/MS, n = 3): 38.62 ± 2.47 ng/mL
- Intracellular TIPP about 30 min after substituting TIPP-free medium (in words) (RBL-2H3 cells [3]; 40 min with 200 μg/mL TIPP, then TIPP-free medium for 30 min, cell lysates): almost eliminated; also recorded: decreased to near LLOQ
- CL/F (apparent clearance rate) [4]: 380 ± 87 L/h/kg
- Elimination after intravenous injection [5]: rapid elimination
- Stability of TIPP in aqueous solution ([6]; 1 μg/mL in TDW, 10 min at room temperature (around 25 °C), protein precipitation with only organic reagents, LC-MS/MS intensity): remained stable
- Stability of TIPP in plasma without stabilizer ([6]; 1 μg/mL in murine plasma, 10 min at room temperature (around 25 °C), protein precipitation with only organic reagents, LC-MS/MS intensity): intensity decreased significantly
- Average recovery of TIPP in plasma with DTT as stabilizer ([6]; murine plasma, 20 mg/mL DTT, immediately or after 10 min at room temperature, LC-MS/MS, n = 3): higher than 95%
- AUC(0-inf) [7]: 136 ng·h/mL
- AUC(0-t) [7]: 133 ng·h/mL
- Cmax [7]: 623 ± 67.1 ng/mL
- Tmax [7]: 10 min
- Vd/F [7]: 54.4 ± 20.9 L/kg
- half-life [7]: 5.99 ± 1.82 min
- level at 40 min [7]: ~20 ng/mL
- MRT ([7]; MRT(0–t)): 11.3 min
- MRT ([7]; MRT(0–∞)): 12.5 min

Molecule: C[C@H](NC(=O)CCCCCNC(=S)Nc1ccc2c(c1)C(=O)OC21c2ccc(O)cc2Oc2cc(O)ccc21)C(=O)N[C@@H](CCC(=O)O)C(=O)N[C@@H](Cc1c[nH]c2ccccc12)C(=O)N[C@@H](CS)C(=O)N1CCC[C@H]1C(=O)O [FITC-TIPP] ({FITC-Ahx}-AEWCP-OH)
- Co-localization of FITC-TIPP with RBL-2H3 cells (RBL-2H3 cells [8]; 367 μg/mL FITC-TIPP (same molar concentration as 200 μg/mL TIPP), fluorescence): co-localized with RBL-2H3 cells at 10 min
- Fluorescent signal of FITC-TIPP in cells over time (RBL-2H3 cells [8]; 367 μg/mL FITC-TIPP, after 30 min, Hoechst 33342 and DiI staining): remained steady after 30 min with significant intranuclear enrichment

Molecule: AEWSP [S4, analog of TIPP (AEWSP), used as the internal standard of the LC-MS/MS method]
- Stability compared with TIPP [9]: significantly improved
